Source: patent publication US8304444B2, “Pyrazole carboxylic acid amides useful as microbiocides” (Syngenta Crop Protection, LLC, priority 2007, dated 2012)

Key:
Type in all cases: cell-based
[1] = system: Monographella nivalis; experiment: Action against Monographella nivalis (snow mould), fungal growth assay; conditions: 0.002% active ingredient, PDB broth, 24° C., photometric after 72 hrs
Description: Action Against Monographella nivalis (Anamorph: Fusarium nivale, Microdochium nivale; Snow Mould)—Fungal Growth Assay Conidia of the fungus from cryogenic storage are directly mixed into nutrient broth (PDB potato dextrose broth). After placing a DMSO-solution of the test compounds (0.002% active ingredient) into a microtiter plate (96-well format) the nutrient broth containing the fungal spores is added. The test plates are incubated at 24° C. and the inhibition of growth is measured photometrically after 72 hrs (0=no growth inhibition, ratings of 80% to 99% mean good to very good inhibition, 100%=complete inhibition). Compounds 1.14 and 1.15 show very good activity in this test (≦80% inhibition).

[2] = system: Mycosphaerella arachidis; experiment: Action against Mycosphaerella arachidis, fungal growth assay; conditions: 0.002% active ingredient, PDB broth, 24° C., photometric after 6-7 days
Description: (§1) Action Against Mycosphaerella arachidis (Early Leaf Spot of Groundnut; Cercospora arachidicola [anamorph])—Fungal Growth Assay Conidia of the fungus from cryogenic storage are directly mixed into nutrient broth (PDB potato dextrose broth). After placing a (DMSO) solution of the test compounds (0.002% active ingredient) into a microtiter plate (96-well format) the nutrient broth containing the fungal spores is added. The test plates are incubated at 24° C. and the inhibition of growth is measured photometrically after 6-7 days. The activity of a compound is expressed as fungal growth inhibition (0=no growth inhibition, ratings of 80% to 99% mean good to very good inhibition, 100%=complete inhibition). Compounds 1.01, 1.14 and 1.15 show very good activity in this test (≦80% inhibition). Compounds 1.07 and 2.01 show good activity in this test (≦50% inhibition).

[3] = system: Pseudocercosporella herpotrichoides var. acuformis; experiment: Action against Pseudocercosporella herpotrichoides var. acuformis (eyespot/cereals), fungal growth assay; conditions: Oculimacula yallundae; 0.002% active ingredient, PDB broth, 24° C., photometric after 72 hrs
Description: as §1, with “Pseudocercosporella herpotrichoides var. acuformis (Eyespot/Cereals)—Fungal” for “Mycosphaerella arachidis (Early Leaf Spot of Groundnut; Cercospora arachidicola [anamorph])—Fungal”, “determined” for “measured”, “72 hrs.” for “6-7 days.”, “(≦30%” for “(≦80%”, “inhibition).” for “inhibition). Compounds 1.07 and 2.01 show good activity in this test (≦50% inhibition).”

[4] = system: Septoria tritici; experiment: Action against Septoria tritici, fungal growth assay; conditions: Zymoseptoria tritici; 0.002% active ingredient, PDB broth, 24° C., photometric after 72 hrs
Description: as §1, with “Septoria tritici—Fungal” for “Mycosphaerella arachidis (Early Leaf Spot of Groundnut; Cercospora arachidicola [anamorph])—Fungal”, “determined” for “measured”, “72 hrs.” for “6-7 days.”, “1.07, 1.14, 1.15, 1.76” for “1.14”, “2.01” for “1.15”, “inhibition).” for “inhibition). Compounds 1.07 and 2.01 show good activity in this test (≦50% inhibition).”

| SMILES | inhibition at 0.002 % strength [1] | inhibition at 0.002 % strength [2] | inhibition at 0.002 % strength [3] | inhibition at 0.002 % strength [4] |
| --- | --- | --- | --- | --- |
| COC(c1ccc(Cl)cc1Cl)C(C)NC(=O)c1cn(C)nc1C(F)F (centres unmarked) [Compound 1.14, 3-difluoromethyl-1-methyl-1H-pyrazole-4-carboxylic acid [2-(2,4-dichlorophenyl)-2-methoxy-1-methyl-ethyl]-amide] | ≤ 80% | ≤ 80% | ≤ 30% | ≤ 80% |
| CONC(c1ccc(Cl)cc1Cl)C(C)NC(=O)c1cn(C)nc1C(F)F (centres unmarked) [Compound 1.76, 3-difluoromethyl-1-methyl-1H-pyrazole-4-carboxylic acid [2-(2,4-dichlorophenyl)-2-methoxyamino-1-methyl-ethyl]-amide] | – | – | – | ≤ 80% |
